The kinase profiling compilation of Christmann-Franck et al. (2016)

Legend:
Test in all cases: radiometric filter-binding kinase assay
[1] = target: MAPK10 (human) (UniProt P53779); conditions: ATP 50 µM
[2] = target: CAMKK2 (human) (UniProt Q96RR4); conditions: compound 10.0 µM; ATP 20 µM
[3] = target: PRKCA (human) (UniProt P17252); conditions: ATP 20 µM
[4] = target: PAK6 (human) (UniProt Q9NQU5); conditions: ATP 20 µM
[5] = target: MAPK11 (human) (UniProt Q15759); conditions: compound 10.0 µM; ATP 20 µM
[6] = target: NEK6 (human) (UniProt Q9HC98); conditions: compound 10.0 µM; ATP 50 µM
[7] = target: HIPK2 (human) (UniProt Q9H2X6); conditions: ATP 5 µM
[8] = target: MYLK (human) (UniProt Q15746); conditions: ATP 50 µM
[9] = target: PIM1 (human) (UniProt P11309); conditions: ATP 20 µM
[10] = target: CHEK2 (human) (UniProt O96017); conditions: compound 10.0 µM; ATP 20 µM
[11] = target: AURKB (human) (UniProt Q96GD4); conditions: ATP 20 µM
[12] = target: CAMKK1 (human) (UniProt Q8N5S9); conditions: ATP 20 µM
[13] = target: MAPK3 (human) (UniProt P27361); conditions: ATP 5 µM
[14] = target: CSK (human) (UniProt P41240); conditions: compound 1.0 µM; ATP 20 µM
[15] = tested on: SRC (chicken); conditions: compound 10.0 µM; ATP 50 µM; accession and sequence are those of the human protein
[16] = target: MAPKAPK2 (human) (UniProt P49137); conditions: ATP 20 µM
[17] = target: IKBKE (human) (UniProt Q14164); conditions: ATP 50 µM
[18] = target: HIPK3 (human) (UniProt Q9H422); conditions: ATP 20 µM
[19] = target: MAPKAPK3 (human) (UniProt Q16644); conditions: ATP 20 µM
[20] = target: PAK7 (human) (UniProt Q9P286); conditions: ATP 20 µM
[21] = target: PDPK1 (human) (UniProt O15530)
[22] = target: STK3 (human) (UniProt Q13188); conditions: compound 10.0 µM; ATP 20 µM
[23] = target: CSNK1D (human) (UniProt P48730); conditions: compound 10.0 µM; ATP 20 µM
[24] = target: TBK1 (human) (UniProt Q9UHD2); conditions: compound 1.0 µM; ATP 50 µM
[25] = target: AKT1 (human) (UniProt P31749); conditions: ATP 5 µM
[26] = tested on: AKT1 (human), P31749 [S473D]; conditions: compound 10.0 µM; ATP 5 µM
[27] = target: PAK4 (human) (UniProt O96013); conditions: ATP 5 µM
Chain of PAK4 (human) (O96013 whole entry, looked up): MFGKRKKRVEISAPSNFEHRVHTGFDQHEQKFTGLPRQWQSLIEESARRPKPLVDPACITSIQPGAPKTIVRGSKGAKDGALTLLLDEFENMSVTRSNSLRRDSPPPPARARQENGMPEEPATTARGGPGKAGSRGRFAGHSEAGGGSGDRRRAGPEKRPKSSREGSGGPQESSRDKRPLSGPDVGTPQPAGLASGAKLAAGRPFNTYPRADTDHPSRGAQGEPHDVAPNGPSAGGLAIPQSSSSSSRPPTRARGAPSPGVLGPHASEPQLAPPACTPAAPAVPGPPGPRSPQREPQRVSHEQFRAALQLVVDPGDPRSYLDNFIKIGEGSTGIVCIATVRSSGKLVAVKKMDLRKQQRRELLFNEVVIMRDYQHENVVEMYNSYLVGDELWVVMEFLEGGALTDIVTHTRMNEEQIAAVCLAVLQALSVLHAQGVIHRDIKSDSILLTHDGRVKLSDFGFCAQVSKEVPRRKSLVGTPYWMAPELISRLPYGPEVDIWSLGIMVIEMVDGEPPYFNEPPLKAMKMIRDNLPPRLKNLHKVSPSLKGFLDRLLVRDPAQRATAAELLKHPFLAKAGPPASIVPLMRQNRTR

Chain of PDPK1 (human) (O15530 whole entry, looked up): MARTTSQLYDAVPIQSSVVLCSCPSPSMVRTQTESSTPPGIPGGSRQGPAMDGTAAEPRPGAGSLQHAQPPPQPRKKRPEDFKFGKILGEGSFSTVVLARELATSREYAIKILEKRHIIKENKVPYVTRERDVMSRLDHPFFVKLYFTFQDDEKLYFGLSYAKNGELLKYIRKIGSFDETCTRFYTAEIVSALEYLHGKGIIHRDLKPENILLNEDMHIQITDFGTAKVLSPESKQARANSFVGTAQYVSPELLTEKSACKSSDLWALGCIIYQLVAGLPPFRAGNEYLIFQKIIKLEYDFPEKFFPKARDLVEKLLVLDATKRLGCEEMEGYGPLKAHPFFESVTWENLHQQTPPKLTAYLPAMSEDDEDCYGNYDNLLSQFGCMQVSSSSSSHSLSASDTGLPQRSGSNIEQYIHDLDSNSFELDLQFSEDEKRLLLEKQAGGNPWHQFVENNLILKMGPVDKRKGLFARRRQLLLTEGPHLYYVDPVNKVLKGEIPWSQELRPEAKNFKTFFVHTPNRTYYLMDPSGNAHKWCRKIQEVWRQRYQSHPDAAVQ
Chain of MAPK3 (human) (P27361 whole entry, looked up): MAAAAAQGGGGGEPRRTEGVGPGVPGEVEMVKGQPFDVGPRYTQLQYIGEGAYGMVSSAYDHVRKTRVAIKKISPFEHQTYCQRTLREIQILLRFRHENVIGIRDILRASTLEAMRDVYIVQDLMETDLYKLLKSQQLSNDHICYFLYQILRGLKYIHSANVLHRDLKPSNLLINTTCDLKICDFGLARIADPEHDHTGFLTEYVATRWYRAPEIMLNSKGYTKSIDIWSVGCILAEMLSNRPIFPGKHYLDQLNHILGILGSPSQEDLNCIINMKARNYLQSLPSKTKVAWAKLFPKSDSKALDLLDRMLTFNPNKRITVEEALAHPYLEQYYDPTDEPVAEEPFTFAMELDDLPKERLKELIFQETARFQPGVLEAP
Chain of AURKB (human) (Q96GD4 whole entry, looked up): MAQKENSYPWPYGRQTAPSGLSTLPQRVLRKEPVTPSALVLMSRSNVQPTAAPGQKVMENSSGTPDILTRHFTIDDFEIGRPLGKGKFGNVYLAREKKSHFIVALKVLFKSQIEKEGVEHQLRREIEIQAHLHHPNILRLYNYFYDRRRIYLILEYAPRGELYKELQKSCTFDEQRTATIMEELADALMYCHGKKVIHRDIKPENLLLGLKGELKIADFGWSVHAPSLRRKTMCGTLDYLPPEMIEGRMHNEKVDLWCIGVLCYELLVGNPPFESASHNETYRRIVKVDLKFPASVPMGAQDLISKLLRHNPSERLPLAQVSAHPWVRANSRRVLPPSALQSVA
Chain of MAPKAPK3 (human) (Q16644 whole entry, looked up): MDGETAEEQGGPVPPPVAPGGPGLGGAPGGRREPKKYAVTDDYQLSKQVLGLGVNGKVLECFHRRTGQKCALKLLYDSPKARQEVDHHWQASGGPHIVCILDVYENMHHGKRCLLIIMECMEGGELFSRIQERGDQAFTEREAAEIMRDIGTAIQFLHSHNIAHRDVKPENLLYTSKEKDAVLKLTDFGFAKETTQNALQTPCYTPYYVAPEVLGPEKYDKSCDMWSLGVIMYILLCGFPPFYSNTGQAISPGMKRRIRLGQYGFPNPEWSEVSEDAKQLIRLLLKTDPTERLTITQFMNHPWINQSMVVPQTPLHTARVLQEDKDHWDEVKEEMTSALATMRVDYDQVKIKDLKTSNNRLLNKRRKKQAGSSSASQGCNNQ
Chain of HIPK2 (human) (Q9H2X6 whole entry, looked up): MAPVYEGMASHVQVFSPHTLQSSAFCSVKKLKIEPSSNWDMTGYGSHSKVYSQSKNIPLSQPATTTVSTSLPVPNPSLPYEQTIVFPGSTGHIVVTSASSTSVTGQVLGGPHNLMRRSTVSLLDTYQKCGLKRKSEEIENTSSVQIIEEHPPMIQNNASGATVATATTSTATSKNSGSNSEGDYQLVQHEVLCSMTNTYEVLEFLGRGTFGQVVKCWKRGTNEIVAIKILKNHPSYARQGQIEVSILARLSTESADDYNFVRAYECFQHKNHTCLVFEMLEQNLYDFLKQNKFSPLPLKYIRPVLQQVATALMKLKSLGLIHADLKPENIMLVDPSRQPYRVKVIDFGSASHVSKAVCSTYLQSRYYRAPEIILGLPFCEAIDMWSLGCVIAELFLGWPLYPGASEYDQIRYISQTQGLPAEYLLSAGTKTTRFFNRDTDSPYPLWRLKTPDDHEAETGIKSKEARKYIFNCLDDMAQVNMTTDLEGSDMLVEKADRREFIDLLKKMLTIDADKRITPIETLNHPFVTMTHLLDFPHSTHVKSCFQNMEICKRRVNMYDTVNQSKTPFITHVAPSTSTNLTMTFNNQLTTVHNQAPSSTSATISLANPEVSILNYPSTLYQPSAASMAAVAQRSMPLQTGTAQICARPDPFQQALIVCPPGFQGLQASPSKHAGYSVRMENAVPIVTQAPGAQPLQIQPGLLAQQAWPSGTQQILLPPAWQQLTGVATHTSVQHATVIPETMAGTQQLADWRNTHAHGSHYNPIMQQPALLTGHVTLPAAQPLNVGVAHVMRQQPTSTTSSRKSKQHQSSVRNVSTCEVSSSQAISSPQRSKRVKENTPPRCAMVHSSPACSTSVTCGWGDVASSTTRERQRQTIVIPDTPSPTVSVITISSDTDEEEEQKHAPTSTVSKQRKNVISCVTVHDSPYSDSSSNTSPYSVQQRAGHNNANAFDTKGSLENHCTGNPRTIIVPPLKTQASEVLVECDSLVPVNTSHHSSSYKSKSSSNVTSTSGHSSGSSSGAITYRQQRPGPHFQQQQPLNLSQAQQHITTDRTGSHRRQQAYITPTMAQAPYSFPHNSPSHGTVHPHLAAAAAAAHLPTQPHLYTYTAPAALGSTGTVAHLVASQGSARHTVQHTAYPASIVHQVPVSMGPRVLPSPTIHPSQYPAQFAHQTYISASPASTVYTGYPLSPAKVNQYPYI
Chain of AKT1 (human) (P31749 whole entry, looked up): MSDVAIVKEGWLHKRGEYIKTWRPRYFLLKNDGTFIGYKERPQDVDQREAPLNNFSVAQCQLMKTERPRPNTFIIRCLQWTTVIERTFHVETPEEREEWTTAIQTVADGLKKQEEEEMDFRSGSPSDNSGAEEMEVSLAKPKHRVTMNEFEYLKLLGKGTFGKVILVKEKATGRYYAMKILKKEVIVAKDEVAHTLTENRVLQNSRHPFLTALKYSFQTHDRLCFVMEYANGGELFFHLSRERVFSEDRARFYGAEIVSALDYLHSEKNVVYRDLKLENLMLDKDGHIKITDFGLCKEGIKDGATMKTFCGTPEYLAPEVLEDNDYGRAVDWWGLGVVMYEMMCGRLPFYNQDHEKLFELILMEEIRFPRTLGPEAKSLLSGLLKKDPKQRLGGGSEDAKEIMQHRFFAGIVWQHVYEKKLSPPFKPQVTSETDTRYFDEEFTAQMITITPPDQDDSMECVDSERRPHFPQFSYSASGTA
Chain of MAPKAPK2 (human) (P49137 whole entry, looked up): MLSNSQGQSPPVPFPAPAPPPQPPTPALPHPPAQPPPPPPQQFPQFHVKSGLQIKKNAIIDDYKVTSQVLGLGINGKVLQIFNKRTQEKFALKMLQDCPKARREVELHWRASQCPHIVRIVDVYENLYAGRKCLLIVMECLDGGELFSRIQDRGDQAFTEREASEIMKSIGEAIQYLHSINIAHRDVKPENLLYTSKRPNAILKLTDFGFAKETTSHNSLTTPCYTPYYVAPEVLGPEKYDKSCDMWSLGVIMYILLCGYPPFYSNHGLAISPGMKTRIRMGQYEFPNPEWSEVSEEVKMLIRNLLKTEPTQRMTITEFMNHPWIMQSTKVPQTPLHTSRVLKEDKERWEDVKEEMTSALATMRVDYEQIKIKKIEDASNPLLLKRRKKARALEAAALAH

CC(C)(N)c1ccc(-c2nc3ccccc3nc2-c2ccccc2)cc1
residual activity ([1]; compound 1.0 µM): 88% | residual activity ([1]; compound 10.0 µM): 80% | residual activity [2]: 108% | residual activity ([3]; compound 1.0 µM): 108% | residual activity ([3]; compound 10.0 µM): 87% | residual activity ([4]; compound 1.0 µM): 116% | residual activity ([4]; compound 10.0 µM): 92% | residual activity [5]: 114% | residual activity [6]: 75% | residual activity ([7]; compound 1.0 µM): 102% | residual activity ([7]; compound 10.0 µM): 85% | residual activity ([8]; compound 1.0 µM): 79% | residual activity ([8]; compound 10.0 µM): 11% | residual activity ([9]; compound 1.0 µM): 80% | residual activity ([9]; compound 10.0 µM): 57% | residual activity [10]: 83% | residual activity ([11]; compound 1.0 µM): 82% | residual activity ([11]; compound 10.0 µM): 60% | residual activity ([12]; compound 1.0 µM): 93% | residual activity ([12]; compound 10.0 µM): 62% | residual activity ([13]; compound 1.0 µM): 93% | residual activity ([13]; compound 10.0 µM): 100% | residual activity [14]: 87% | residual activity [15]: 118% | residual activity ([16]; compound 1.0 µM): 84% | residual activity ([16]; compound 10.0 µM): 60% | residual activity ([17]; compound 1.0 µM): 87% | residual activity ([17]; compound 10.0 µM): 67% | residual activity ([18]; compound 1.0 µM): 77% | residual activity ([18]; compound 10.0 µM): 66% | residual activity ([19]; compound 1.0 µM): 86% | residual activity ([19]; compound 10.0 µM): 71% | residual activity ([20]; compound 1.0 µM): 96% | residual activity ([20]; compound 10.0 µM): 61% | residual activity ([21]; compound 1.0 µM, ATP 20 µM): 96% | residual activity ([21]; compound 1.0 µM, ATP 50 µM): 76% | residual activity ([21]; compound 10.0 µM, ATP 20 µM): 95% | residual activity [22]: 78% | residual activity [23]: 111% | residual activity [24]: 101% | residual activity ([25]; compound 1.0 µM): 22% | residual activity ([25]; compound 10.0 µM): 8% | residual activity [26]: 64% | residual activity ([27]; compound 1.0 µM): 92% | residual activity ([27]; compound 10.0 µM): 49%
